One data set can be described thus: Solubility in solvents. Type of data set: physicochemical.
The target in data set [1] is T1, undecaprenyl diphosphate synthase derived from Staphylococcus aureus (Staphylococcus aureus, UniProt P60477).
T1 construct: made in house; host or cells: E. coli BL21 (DE3), T7 promoter, IPTG induction; unpurified cell-free extract (100,000 x g supernatant)
The experiment in a line: Inhibitory effect on undecaprenyl diphosphate synthase (phosphate release, Amplex Red fluorescence). Type of data set: biochemical. On the procedure:
(1) Inhibitory effect on the undecaprenyl diphosphate synthase derived from Staphylococcus aureus
The test on the activity of undecaprenyl diphosphate synthase was determined following a method of LI et al. (J. Biomol. Screen., vol. 8, pages 712-715, 2003) with partial changes. […]
The measurement of the activity of undecaprenyl diphosphate synthase was conducted as follows: the FKI-3368 substance was added to a buffer solution B (100 mM Tris-HCl buffer solution (pH 7.5), 50 mM potassium chloride, 0.5 mM magnesium chloride, 0.5 μM farnesyl diphosphate, 3.5 μM isopentenyl diphosphate, […] inorganic pyrophosphatase) so that 90 μL in total volume might be respectively put in each well of a 96-well microplate. […] In order to quantify the released phosphate, 100 μL of a solution C (0.5M Tris-HCl buffer solution (pH 8.8), 1.5 mM inosine, 50 μM Amplex™ Red, 0.02 U nucleoside phosphorylase, 1 U peroxidase, 0.4 U xanthine oxidase) was added to each well and after reaction was performed at room temperature for 40 minutes, fluorescence intensity was measured under the conditions of an excitation wavelength at 544 nm and a measurement wavelength at 590 nm.
The addition amount of […] and the intensity of fluorescence (F.I.) measured in a reaction liquid without the addition thereof were applied to the following expression and the inhibition % was calculated: […]

Data set [2] deals with Aspergillus niger ATCC 9642. In words: MIC by agar dilution. The class given is cell-based. The settings on record: ATCC9642; Aspergillus niger ATCC 9642, 27° C. for 40 hours. On the procedure: (§1) The measurement of the minimal inhibitory concentration (MIC) for various microbes of the FKI-3368-I substance of the present invention was performed by the following method. An ethanol solution of the FKI-3368-I substance was subjected to 2-fold dilution from the concentration of 1,000 μg/ml to prepare 14 stage diluted solutions (1,000 μg/ml, 500 μg/ml, 250 μg/ml, 125 μg/ml, 62.5 μg/ml, 31.3 μg/ml, 15.6 μg/ml, 7.8 μg/ml, 3.9 μg/ml, 2 μg/ml, 1 μg/ml, 0.5 μg/ml, 0.24 μg/ml and 0.12 μg/ml). After 1 ml each of the respective diluted solutions was placed on a round shape dish (90 mm (diameter)×20 mm, produced by IWAKI Co., Ltd.), 9 ml of a culture medium-N for sensitivity disc (for bacteria; produced by Nissui Pharmaceutical Co., Ltd.) or Sabouraud glucose agar (for yeast or mold; produced by Nihon Pharmaceutical Co., Ltd.) was added thereto to form plate media. The test microbes had been incubated in advance in Muller Hinton culture media (for bacteria; produced by Nissui Pharmaceutical Co., Ltd.) or potato dextrose agar media (for yeast or mold; produced by Nissui Pharmaceutical Co., Ltd.). On the very date when the test was performed, the resultant microbe suspensions were diluted with an Muller Hinton culture medium or a potato dextrose culture medium and a platinum loop thereof was streak-smeared on the plate media. These streak-smeared plate media was incubated at 37° C. for 18 hours (for bacteria) or at 27° C. for 40 hours (for yeast and mold) and MIC was determined.

Data set [3] deals with Micrococcus luteus ATCC 9341. The experiment in a line: MIC by agar dilution. The class given is cell-based. Particulars: ATCC9341; Micrococcus luteus ATCC 9341, 37° C. for 18 hours. On the procedure:
as §1

Another data set has as its system MRSA K24. The experiment in a line: MIC by agar dilution. Type of data set: cell-based. Particulars: Staphylococcus aureus, 18 h. On the procedure: as §1
The next data set has as its system Mucor racemosus IFO 4581. In words: MIC by agar dilution. Type of data set: cell-based. The settings on record: IFO4581; Mucor racemosus IFO 4581, 27° C. for 40 hours. How it is done:
as §1

In data set [4] the test system is Staphylococcus aureus ATCC 6538P. The experiment in a line: MIC by agar dilution. The class given is cell-based. Particulars: ATCC6538P, 37° C. for 18 hours. How it is done: as §1
In data set [5] the test system is Serratia marcescens IAM 1021. In words: MIC by agar dilution. Type of data set: cell-based. The settings on record: IAM1021; Serratia marcescens IAM 1021, 37° C. for 18 hours. On the procedure: as §1
Background: In agar dilution the substance is mixed into plates at graded concentrations.

Data set [6] has as its system Klebsiella pneumoniae ATCC 10031. In words: MIC by agar dilution. Type of data set: cell-based. Particulars: ATCC10031; Klebsiella pneumoniae ATCC 10031, 37° C. for 18 hours. On the procedure:
as §1

For data set [7], the system named is Candida albicans ATCC 64550. In words: MIC by agar dilution. The class given is cell-based. The settings on record: ATCC64550, 40 h. How it is done:
as §1

Data set [8] deals with Saccharomyces cerevisiae ATCC 9763. The experiment in a line: MIC by agar dilution. Type of data set: cell-based. The settings on record: ATCC9763; Saccharomyces cerevisiae ATCC 9763, 27° C. for 40 hours. How it is done: as §1
The test system of the next data set is Escherichia coli NIHJ. In words: MIC by agar dilution. The class given is cell-based. Particulars: 37° C. for 18 hours. How it is done: as §1
Data set [9] relates to Mycobaderium smegmatis ATCC 607. In words: MIC by agar dilution. Particulars: 18 h. The class given is cell-based. How it is done:
as §1

Data set [10] has as its system Pseudomonas aeruginosa IFO 3080. The experiment in a line: MIC by agar dilution. Particulars: IFO3080; Pseudomonas aeruginosa IFO 3080, 37° C. for 18 hours. The class given is cell-based. On the procedure: as §1
For data set [11], the system named is Bacillus subtilis ATCC 6633. The experiment in a line: MIC by agar dilution. Particulars: ATCC6633; Bacillus subtilis ATCC 6633, 37° C. for 18 hours. Type of data set: cell-based. On the procedure: as §1
For data set [12], the system named is Penicillium chrysogenam IAM 12842. The experiment in a line: MIC by agar dilution. Type of data set: cell-based. Particulars: IAM12842, 40 h. On the procedure: as §1
[13] abbreviates: methanol, ethanol, acetonitrile, ethyl acetate, chloroform and dimethylsulfoxide.

In brackets after ≈: the same amount, converted by molar mass. Where two headings read alike, the source gives them in different places.

T1 sequence (P60477 whole entry): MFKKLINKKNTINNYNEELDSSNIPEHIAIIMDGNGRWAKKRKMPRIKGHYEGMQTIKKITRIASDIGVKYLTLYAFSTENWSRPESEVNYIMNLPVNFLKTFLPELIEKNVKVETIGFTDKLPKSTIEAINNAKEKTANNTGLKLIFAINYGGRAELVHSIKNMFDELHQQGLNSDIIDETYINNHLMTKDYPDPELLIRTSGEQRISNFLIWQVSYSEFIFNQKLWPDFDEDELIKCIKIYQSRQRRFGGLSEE

Turning to `COc1cc(O)c2c(O)c3c(c4c2c1C1(C4)C(C)=CCCC1(C)C)C(O)C1(O)CC(O)=C(C(C)=O)C(=O)C1(O)C3=O` (centres unmarked) [FKI-3368-2], the Solubility in solvents entry in “Solubility in solvents” (setting [13]) is on record as “Soluble”; in the data set “Solubility in solvents” (water), “indissoluble”. Moreover, the IC50 in [1] amounted to 10 µM.

Consider `COc1cc(O)c2c(O)c3c(c4c2c1C1(C4)C(C)=CCCC1(C)C)C(O)C1(O)CC(O)=C(C(N)=O)C(=O)C1(O)C3=O` (centres unmarked) [FKI-3368-1], for which the results for the Solubility in solvents entry in “Solubility in solvents” (setting [13]) and in the data set “Solubility in solvents” (water) were “Soluble” and “indissoluble”, respectively. Further, the IC50 in data set [1] (cell-free extract of transformed E. Coli as enzyme source, 37° C., 20 minutes, read-out: concentration at which the undecaprenyl diphosphate synthase activity was inhibited to 50% (IC50)) was found to be 4 µM. Also, the MIC is 12.5 µg/mL (≈ 22.1 µM) in data set [2]; 1.56 µg/mL (≈ 2.76 µM) in data set [3]; 0.78 µg/mL (≈ 1.38 µM) in the data set on MRSA K24; 25 µg/mL (≈ 44.2 µM) in the data set with Mucor racemosus IFO 4581; 0.78 µg/mL (≈ 1.38 µM) in data set [4]; greater than 100 µg/mL in [5]. Moreover, the MIC is greater than 100 µg/mL in data set [6]; 6.25 µg/mL (≈ 11.1 µM) in data set [7]; 12.5 µg/mL (≈ 22.1 µM) in [8]; greater than 100 µg/mL with Escherichia coli NIHJ; greater than 100 µg/mL in data set [9]; greater than 100 µg/mL in [10]. Further, the results for the MIC in data set [11] and in [12] were 0.4 µg/mL (≈ 0.707 µM) and 6.25 µg/mL (≈ 11.1 µM), respectively.

What is called MIC is the lowest concentration found to suppress growth. A lower MIC goes with a more susceptible organism.

The values above are taken from US20100291622A1, “NOVEL COMPOUND, PROCESS FOR PRODUCTION THEREOF, AND USE THEREOF” (SCHOOL JURIDICAL PERSON KITASATO INSTITUTE, priority 2007, published 2010).
